Test results published in patent publication US20170172963A1, “COMPOSITIONS AND METHODS FOR THE PREVENTION AND OR TREATMENT OF SCHISTOSOMIASIS” (DSM IP ASSETS B.V., priority 2014, published 2017).
Values joined by “and” are separate entries in the source; they are usually repeats but may differ in a detail not shown here. Identical values can stand only once.

Assays:
Format in all cases: in vivo, human
[1] = system: Schistosoma mansoni; experiment: Example 1: stool egg counts (Kato-Katz, epg) and cure rate in infected school children, Menoufiya; details: for % cure rate: children with 0 epg after week 9
Method: Approximately 2000 school children in villages of three districts in the Menoufiya governorate located about 100 km north of Cairo, Egypt were screened. Two microscopic slides of stool samples were examined for each child on 3 consecutive days by the Kato-Katz method and egg counts per gram (epg) were recorded. 66 children, 44 males and 22 females, 6-15 years old (mean±SD=11.7±1.6), with weight range of 25-52 kg (mean±SD=37.8±8.6), and epg of 24-384 were selected as test subjects. 20 sex, age, and social conditions-matched, parasite-free children were used as controls.
The 66 children were divided randomly into three groups whereby the first group of 20 children were given a single oral dose of Praziquantel (PZQ) (40 mg/kg body weight) on the first day of treatment and a placebo was given for the next three weeks (5 doses/week) (“PZQ-Placebo Treatment”). The PZQ was Distocide (Epico, El-Asher-Men-Ramadan City, Egypt). The placebo was 1 g VegCap, containing corn-soy (DSM Nutritional Products, Columbia, Md.). The second group of 23 children received ARA (10 mg/kg body weight/day) for 15 days over three weeks (5 days/week) (“ARA Treatment”) The ARA was 1 g VegCap (DSM) containing approximately 395 mg ARA/capsule. The third group of 23 children were given Praziquantel (40 mg/kg body weight) in the first day of treatment and then received 15 doses of ARA (10 mg/kg/day; 5 doses/week) (“PZQ+ARA Treatment”).
(§1) Approximately 10 ml blood were obtained from each child 2-3 days before the start of the treatment and 3 days after the end of the ARA (or ARA+PZQ) treatment, corresponding to 18 days after PZQ-only treatment. Stool samples were obtained from each child on 3 consecutive days 1 week after the end of the ARA treatment (corresponding to 4 weeks after the PZQ-only treatment) and 6 weeks after the end of the ARA treatment (corresponding to 9 weeks after the PZQ-only treatment). Epg was assessed on each stool sample.
(§2) Subjects having initial baseline epg counts <100 were classified as having low infection. Subjects having initial baseline epg counts >100 but <400 were classified as having moderate infection. Subjects having initial baseline epg counts >400 were classified as having high infection.

[2] = system: Schistosoma mansoni; experiment: Example 2: stool egg counts (epg) and cure rate in infected school children, El Kafr Sheikh; parameters: % epg reduction: concentration or dose not given beside the values
Method: School children from El Kafr Sheikh were screened similar to those school children in Example 1 above.
(§3) The children were divided randomly into three groups whereby the first group of children were given a single oral dose of Praziquantel (PZQ) (40 mg/kg body weight) on the first day of treatment and a placebo was given for the next three weeks (5 doses/week) (“PZQ-Placebo Treatment”). The PZQ was Distocide (Epico, El-Asher-Men-Ramadan City, Egypt). The placebo was 1 g VegCap, containing corn-soy (DSM Nutritional Products, Columbia, Md.). The second group of children received ARA (10 mg/kg body weight/day) for 15 days over three weeks (5 days/week) (“ARA Treatment”). The ARA was 1 g VegCap (DSM) containing approximately 395 mg ARA/capsule. The third group of children were given Praziquantel (40 mg/kg body weight) in the first day of treatment and then received 15 doses of ARA (10 mg/kg/day; 5 doses/week) (“PZQ-ARA Treatment”).
as §1, §2

[3] = system: IL-10; experiment: Example 2: plasma IL-10 level by capture ELISA after treatment; details: for Median IL-10 after treatment / % reduction in IL-10 levels: plasma; for Median IL-10 after treatment: 3 days after end of ARA treatment (18 days after PZQ); for % reduction in IL-10 levels: after treatment vs baseline
Method: as §3, §1
(§4) Plasma was retrieved from heparinized blood following centrifugation at 400 g for 20 minutes and stored at −76° C. until assayed by capture enzyme-linked immunosorbent assay (ELISA) for levels of IL-10 and IFN-γ (ELISA MAX™ Set, BioLegend, San Diego, Calif.) according to the manufacturer's protocol.

[4] = system: IFN-γ; experiment: Example 2: plasma IFN-γ level by capture ELISA after treatment; details: for Median IFN-γ after treatment / % reduction in IFN-γ levels: plasma; for Median IFN-γ after treatment: 3 days after end of ARA treatment (18 days after PZQ); for % reduction in IFN-γ levels: after treatment vs baseline
Method: as §3, §1, §4

[5] = low infection (baseline epg < 100)
[6] = moderate and high infection (baseline epg > 100)
[7] = initial baseline epg < 100, mean epg 6 weeks after treatment vs mean baseline epg
[8] = initial baseline epg > 100 and < 400, mean epg 6 weeks after treatment vs mean baseline epg
[9] = initial baseline epg > 400, mean epg 6 weeks after treatment vs mean baseline epg
[10] = low infection, initial baseline epg < 100
[11] = moderate infection, initial baseline epg > 100 and < 400

Compound | % cure rate [1, 5] | % cure rate [1, 6] | % epg reduction [2, 7] | % epg reduction [2, 8] | % epg reduction [2, 9] | % cured [2, 10] | % cured [2, 11] | Median IL-10 after treatment [3] | % reduction in IL-10 levels [3] | Median IFN-γ after treatment [4] | % reduction in IFN-γ levels [4] | further results
CCCCC/C=C\C/C=C\C/C=C\C/C=C\CCCC(=O)O [ARA, all-cis 5,8,11,14-eicosatetreanoic acid] | 77% | 50% | −2.6% | 49% | 65% | 50% and 50 (22/43) % | 49% and 28 (4/19) % | 40 pg/mL | 50% | 25 pg/mL | 70% | epg After Week 4 ([1]; individual subjects with initial baseline epg < 100, stool 4 weeks after PZQ / 1 week after end of ARA): 12 epg and 0 epg (4×) and 144 epg and 24 epg (2×) and 20 epg and 52 epg and 48 epg and 19 epg; epg After Week 9 ([1]; individual subjects with initial baseline epg < 100, stool 9 weeks after PZQ / 6 weeks after end of ARA): 0 epg (10×) and 376 epg and 20 epg and 42 epg; epg After Week 4 ([1]; individual subjects with initial baseline epg > 100, stool 4 weeks after PZQ / 1 week after end of ARA): 240 epg and 96 epg (3×) and 749 epg and 216 epg and 84 epg and 0 epg and 48 epg and 60 epg; epg After Week 9 ([1]; individual subjects with initial baseline epg > 100, stool 9 weeks after PZQ / 6 weeks after end of ARA): 0 epg (5×) and 108 epg and 48 epg and 28 epg and 20 epg and 152 epg; levels of circulating IL-10 (result in words) ([3]; after treatment): more effective; levels of circulating IFN-γ (result in words) ([4]; after treatment): more effective
O=C(C1CCCCC1)N1CC(=O)N2CCc3ccccc3C2C1 (stereo not drawn) [PZQ, 2-(Cyclohexylcarbonyl)-1,2,3,6,7,11b-hexahydro-4H-pyrazino[2,1-a] isoquinolin-4-one, reference compound] | 71% | 67% | 50% | 70% | 81% | 57 (20/35) % | 43 (10/23) % | 36 pg/mL | 42% | 32.5 pg/mL | 60% | epg After Week 4 ([1]; individual subjects with initial baseline epg < 100, stool 4 weeks after PZQ / 1 week after end of ARA, listed as PZQ-Placebo): 8 epg and 0 epg (9×) and 5 epg (2×); epg After Week 9 ([1]; individual subjects with initial baseline epg < 100, stool 9 weeks after PZQ / 6 weeks after end of ARA, listed as PZQ-Placebo): 10 epg and 4 epg and 0 epg (10×) and 6 epg and 20 epg; epg After Week 4 ([1]; individual subjects with initial baseline epg > 100, stool 4 weeks after PZQ / 1 week after end of ARA, listed as PZQ- Placebo): 0 epg (3×) and 16 epg; epg After Week 9 ([1]; individual subjects with initial baseline epg > 100, stool 9 weeks after PZQ / 6 weeks after end of ARA, listed as PZQ- Placebo): 0 epg (4×) and 10 epg and 30 epg; % cured ([2]; high infection, initial baseline epg > 400): 30 (8/26) %; % cured ([2]; high infection, initial baseline epg > 400, listed as PZQ-Placebo): 81%; % cured ([2]; low infection, initial baseline epg < 100, listed as PZQ-Placebo): 57%; % cured ([2]; moderate infection, initial baseline epg > 100 and < 400, listed as PZQ-Placebo): 70%
